Article PMC4552634, “A New Set of Chemical Starting Points with Plasmodium falciparum Transmission-Blocking Potential for Antimalarial Drug Discovery” (PLoS ONE, 2015)
Read-outs that look alike come from different tables or passages of the source.

What was measured:
[1] = system: P. falciparum asexual stages; details: asexual stages; TCAMS data; read-out: IC50 asexual; cited from earlier work
[2] = system: P. falciparum stage V gametocytes; test: Gametocytocidal ATP bioluminescence assay (single point 5 μM and 1 μM, dose-response); assay type: cell-based, Plasmodium falciparum; details: for Ratio IC50 HepG2/IC50 P. falciparum: IC50 HepG2 divided by IC50 P. falciparum gametocytes
Protocol: Purified stage IV-V gametocytes were obtained as previously described [10]. Single point ATP bioluminescence assay and dose–response of positive hits was determined in accordance with the previously published protocol [10].

HepG2 cells = test: Cytotoxicity in HepG2 cells (intracellular ATP, ATPlite, 48 h); assay type: cell-based, human; details: HepG2 cells; IC50 per ratio column head; unit inferred
Protocol: Cells were grown and maintained in EMEM (Sigma-Aldrich) supplemented with 2mM L-glutamine (Sigma-Aldrich) and 10% fetal calf serum (Perbio). […] Passages were routinely made upon reaching 80–90% confluence. For cytotoxicity experiments, cells were seeded onto 96-well clear bottom black plates coated with type I collagen (Biocoat, Becton Dickinson) at a cell density of 20,000 cells/well.
To determine cytotoxic effects, represented by the Tox50 value (the concentration of drug that reduces cell viability by 50%), cells were exposed to serial dilutions of compounds for 48 h at 37°C. The assay medium was as previously described, but supplemented with 5% fetal calf serum instead of 10%. […] In the presence of ATP, luminescence is emitted as the reaction described earlier for the BacTiter-Glo kit. Percentages of inhibition were calculated relative to vehicle control wells.

[3] = P. falciparum gametocytes, average, read-out: IC50 Pf Gametocytes average, IC50 (µM) average
[4] = sexual stages (gametocytes), dose-response, read-out: IC50 sexual

Row | SMILES | IC50 [1] | Ratio IC50 HepG2/IC50 P. falciparum [2] | IC50 [2, 3] | IC50 [2, 4] | IC50 (HepG2 cells)
1 | COc1cccc(OC)c1CN1CCC(N(C)CCCCCCCCN2CCC(OC(=O)Nc3ccccc3-c3ccccc3)CC2)CC1 [TCMDC-134684] | 458 nM | 3.29 | 1.04 µM | 1.03 µM | 3400 nM
2 | COc1cccc(OC)c1CN1CCC(N(C)CCCCCCCCCN2CCC(OC(=O)Nc3ccccc3-c3ccccc3)CC2)CC1 [TCMDC-134690] | 319 nM | <6 | 0.26 µM | 0.255 µM | < 1560 nM
3 | Cc1cc(N[C@@H](Cc2ccccc2)C(=O)NCCc2ccccc2)nc(NCCc2ccccc2)n1 [TCMDC-134776] | 850 nM | <1 | > 10 µM | – | 13600 nM
4 | COc1ccccc1CCNc1nc(C)cc(N[C@@H](Cc2ccccc2)C(=O)NCCOc2ccccc2)n1 [TCMDC-134862] | 1210 nM | <1 | > 10 µM | – | 11100 nM
5 | COc1ccccc1CCNc1nc(C)cc(N[C@@H](Cc2ccccc2)C(=O)NCc2cccc(F)c2)n1 [TCMDC-134893] | 867 nM | 1.19 | 5.3 µM | – | 6300 nM
6 | CCn1c(Sc2ccc([N+](=O)[O-])c(C#N)c2)nnc1-c1cccc(Cl)c1 [TCMDC-135234] | 873 nM | >8 | 3.04 µM | – | > 25000 nM
7 | CCn1c(-c2nonc2N)nc2c(-c3cc4ccccc4s3)ncc(C(=O)N3CCC(N)C3)c21 (stereo not shown) [TCMDC-135281] | 871 nM | 10 | 0.35 µM | – | 3500 nM
8 | COc1cc2ccccc2cc1OCCCN1CCN(CC(c2ccc(F)cc2)N2CCN(C(C)C)CC2)CC1 (stereo not shown) [TCMDC-135496] | 749 nM | 3 | 1.25 µM | 1.25 µM | 3720 nM
9 | CC(C)(C)N1CCC(N(Cc2ccc(-c3ccc(C(F)(F)F)cc3)cc2)C(=O)Cn2c(CCc3cccc(F)c3F)cc(=O)c3cccnc32)CC1 [TCMDC-136011] | 705 nM | 1.3 | 2.39 µM | – | 3100 nM
10 | CCn1c(-c2nonc2N)nc2c(-c3cccc(NC(=O)Nc4ccccc4OC)c3)ncc(OCCCN)c21 [TCMDC-136190] | 1000 nM | 14 | 0.44 µM | 0.435 µM | 5900 nM
11 | CCn1c(-c2nonc2N)nc2c(-c3cccc(NC(=O)Nc4cccc(Cl)c4)c3)ncc(OCCCN)c21 [TCMDC-136193] | 941 nM | 7 | 2.17 µM | 2.17 µM | 14500 nM
12 | CCn1c(-c2nonc2N)nc2c(-c3cccc(NC(=O)Nc4cccc(C#N)c4)c3)ncc(OCCCN)c21 [TCMDC-136195] | 669 nM | 7 | 3.51 µM | 3.52 µM | 24700 nM
13 | NCCCOc1cnc(-c2ccccc2)c2nc(-c3nonc3N)n(CCc3ccccc3)c12 [TCMDC-136216] | 1270 nM | 4 | 1.4 µM | – | 5610 nM
14 | O=C(Nc1ccc(F)c(C(F)(F)F)c1)NC1CCN(CCCCCNC(=O)C2CC2c2ccc(Cl)c(Cl)c2)CC1 (stereo not shown) [TCMDC-136259] | 663 nM | 1.47 | 4.35 µM | – | 6400 nM
15 | COc1cc(Br)c(S(=O)(=O)n2cc(CN3CCC(N)CC3)c3cc(Cl)ccc32)cc1OC [TCMDC-136384] | 985 nM | 2.77 | 2.42 µM | 2.42 µM | 6700 nM
16 | CN1CCCN(Cc2cccc(-c3ccc(NS(=O)(=O)c4cccc5cccnc45)cc3)c2)CC1 [TCMDC-136481] | 957 nM | <1 | > 10 µM | – | 6500 nM
17 | Fc1ccc(N(c2nc(-c3cc(F)cc(C(F)(F)F)c3)cs2)C2CCNCC2)cc1 [TCMDC-136656] | 956 nM | 2 | 3.28 µM | 3.27 µM | 6600 nM
18 | CCNCc1cccc(-c2ccc3ccnc(N)c3c2)c1 [TCMDC-136869] | 47 nM | 7.56 | 1.66 µM | – | 12500 nM
19 | FC(F)(F)COc1c(CCNCCCCNCCc2ccc3ccccc3c2OCC(F)(F)F)ccc2ccccc12 [TCMDC-137169] | 348 nM | 28 | 0.1 µM | – | 2800 nM
20 | CCN(CC)CCOc1ccc(C(O)(C#CC(O)(c2ccccc2)c2ccc(OCCN(CC)CC)cc2)c2ccccc2)cc1 (stereo not shown) [TCMDC-137197] | 1310 nM | 5.34 | 0.69 µM | 0.687 µM | 3670 nM
21 | CCN(CC)CCOc1ccc(C(O)(C#CC(O)(c2ccc(C)cc2)c2ccc(OCCN(CC)CC)cc2)c2ccc(C)cc2)cc1 (stereo not shown) [TCMDC-137198] | 903 nM | 12 | 0.14 µM | – | 1620 nM

Row | SMILES | IC50 [1] | Ratio IC50 HepG2/IC50 P. falciparum [2] | IC50 [2, 3] | IC50 [2, 4] | IC50 (HepG2 cells)
22 | CCN(CC)CCOc1ccc(C(O)(C#CC(O)(c2ccc(OCCN(CC)CC)cc2)c2ccc([N+](=O)[O-])cc2)c2ccc([N+](=O)[O-])cc2)cc1 (stereo not shown) [TCMDC-137201] | 1730 nM | 28 | 0.22 µM | 0.224 µM | 6200 nM
23 | CCc1cc(COc2ccc(CNCCC(C)C)cc2I)c(OCc2ccccc2)c(COc2ccc(CNCCC(C)C)cc2I)c1 [TCMDC-137255] | 1110 nM | 5.71 | 1.02 µM | 1.01 µM | 5800 nM
24 | CC(C)NCc1ccc(OCc2cccc(COc3ccc(CNC(C)C)cc3I)c2)c(I)c1 [TCMDC-137259] | 92 nM | 23 | 0.21 µM | – | 4900 nM
25 | CC(C)CCNCc1ccc(OCc2cccc(COc3ccc(CNCCC(C)C)cc3I)c2)c(I)c1 [TCMDC-137274] | 453 nM | 14 | 0.37 µM | – | 5300 nM
26 | FC(F)(F)COc1ccc(CCNCCCCNCCc2ccc(OCC(F)(F)F)c3ccccc23)c2ccccc12 [TCMDC-137282] | 648 nM | 112 | 0.0267 µM | 0.027 µM | 3000 nM
27 | FC(F)(F)COc1ccc2ccccc2c1CCNCCCCNCCc1c(OCC(F)(F)F)ccc2ccccc12 [TCMDC-137317] | 426 nM | 2.41 | 1.37 µM | – | 3300 nM
28 | COc1ccc2c(c1CCNCCCCNCCc1c(OC)ccc3c1CCCC3)CCCC2 [TCMDC-137324] | 376 nM | 5 | 0.15 µM | – | 750 nM
29 | C=CCOc1ccc2ccccc2c1CNCCCCCCNCc1c(OCC=C)ccc2ccccc12 [TCMDC-137340] | 859 nM | <6 | 0.25 µM | – | < 1560 nM
30 | CCCCCCN=C(N)c1ccc(OCCCCCOc2ccc(C(N)=NCCCCCC)cc2)cc1 [TCMDC-137619] | 309 nM | 17 | 0.31 µM | 0.309 µM | 5390 nM
31 | c1ccc2c(NCCCCCCCCCNc3ccnc4ccccc34)ccnc2c1 [TCMDC-137750] | 115 nM | 2.83 | 1.03 µM | 1.02 µM | 2900 nM
32 | c1ccc2c(NCCCCCCCCNc3ccnc4ccccc34)ccnc2c1 [TCMDC-137751] | 155 nM | 3.46 | 1.08 µM | – | 3740 nM
33 | CCOc1c(CCNCCCCNCCc2ccc3ccccc3c2OCC)ccc2ccccc12 [TCMDC-137759] | 596 nM | <9 | 0.17 µM | 0.173 µM | < 1560 nM
34 | CSc1ccc2ccccc2c1CCNCCCCNCCc1c(SC)ccc2ccccc12 [TCMDC-137763] | 408 nM | 7 | 0.23 µM | – | 1650 nM
35 | CCOc1ccc2ccccc2c1CNCCCCCCNCc1c(OCC)ccc2ccccc12 [TCMDC-137791] | 576 nM | 2.5 | 0.7 µM | – | 1750 nM
36 | COc1cc2ccccc2c(CNCCCCCCNCc2c(OC)c(OC)cc3ccccc23)c1OC [TCMDC-137795] | 1110 nM | 4.5 | 1.05 µM | 1.04 µM | 4700 nM
37 | COc1ccc2ccc(OC)c(CNCCCCCCNCc3c(OC)ccc4ccc(OC)cc34)c2c1 [TCMDC-137796] | 699 nM | 12 | 0.29 µM | 0.285 µM | 3400 nM
38 | COc1ccc2cc(CNCCCCCCNCc3ccc4cc(OC)ccc4c3)ccc2c1 [TCMDC-137797] | 624 nM | 4.48 | 0.67 µM | – | 3000 nM
39 | FC(F)(F)COc1ccc2ccccc2c1CNCCCCCCNCc1c(OCC(F)(F)F)ccc2ccccc12 [TCMDC-137816] | 352 nM | 8 | 0.37 µM | – | 3040 nM
40 | COc1ccc2c(c1CNCCCCCCNCc1c(OC)ccc3c1CCCC3)CCCC2 [TCMDC-137817] | 907 nM | 9 | 0.42 µM | – | 3830 nM
41 | COc1c(OC)c(OC)c2ccccc2c1CNCCCCCCNCc1c(OC)c(OC)c(OC)c2ccccc12 [TCMDC-137827] | 759 nM | 2.79 | 1.15 µM | 1.15 µM | 3200 nM
42 | C#CCCOc1ccc2ccccc2c1CNCCCCCCNCc1c(OCCC#C)ccc2ccccc12 [TCMDC-137832] | 811 nM | 14 | 0.41 µM | 0.405 µM | 5500 nM
